The record followed here is US4997652A, “Biodegradable ocular implants” (priority 1989, dated 1991).

One series is described as follows: in vivo. Also on record: species or system New Zealand white rabbits. The following applies: rabbit. As to the method:
1. 50 μg/0.1 ml doxorubicin was injected into the AC of 10 New Zealand white rabbits. The AC was tapped for doxorubicin assay.

In series [1] the test system is eye. In words: Ocular toxicity observation after AC injection of unencapsulated doxorubicin. Format: in vivo, New Zealand white rabbits. As to the method: 2. 50 μg/0.10 ml doxorubicin was injected into the […] in each of two rabbits. The contralateral eye was given 0.10 ml of normal saline.
Series [2] can be described thus: Residual vitreous doxorubicin after injection of doxorubicin into the PC. Format: in vivo, rabbits. As to the method: 1. 50 μg/0.1 ml doxorubicin was injected into the posterior chamber (PC) of each of 10 rabbits. The contralateral eye served as control.
Series [3] deals with eye. Kind of series: Clinical observation of eye after PC injection of doxorubicin. In kind it is in vivo, rabbits. The following applies: free drug. As to the method: 2. 50 μg/0.10 ml of doxorubicin was injected into one eye of two animals for clinical observation for one week. Saline control was injected into the contralateral eye.
Where [4] appears, read: 50 ug into PC right eye, free drug, 0 hours.

“And” between values parts separate entries of the source, which are not always exact repeats. Equal values may be shown once. Read-outs that look alike come from different tables or passages of the source.

Take `COc1cccc2c1C(=O)c1c(O)c3c(c(O)c1C2=O)C[C@@](O)(C(=O)CO)C[C@@H]3O[C@H]1C[C@H](N)[C@H](O)[C@H](C)O1` [doxorubicin]: the half-life in “in vivo” was ~60 min; in series [2] (rabbit, vitreous, 0.05 mg, PC injection, 50 ug, read-out: halflife of free doxorubicin (converted)), ~180 min. In the series on eye [1], the ocular toxicity entry is “causes ocular inflammation and corneal edema”. Further, in the series on eye [1], the “time of ocular inflammation and corneal edema after AC injection” value lay within 2 to 3 days. Besides, the “Residual vitreous doxorubicin, Mean ± SD” value in series [2] (setting [4]) came out at 8.55 ± 0.24 µg/mL. Further, the “Residual vitreous doxorubicin, single sample” value in series [2] (setting [4]) is 8.40 µg/mL and 8.74 µg/mL; in series [2] (50 ug into PC right eye, free drug, 2 hours, 120 min), 4.65 µg/mL; in series [2] (50 ug into PC right eye, free drug, 4 hours, 240 min) it was 3.4 µg/mL; in series [2] (50 ug into PC right eye, free drug, 8 hours, 480 min) it was 0.75 µg/mL; in series [2] (50 ug into PC right eye, free drug, 16 hours, 960 min), 0.21 µg/mL. Moreover, the concentration at 2 h was determined as 5590 ± 1340 ng/mL in series [2] (rabbit, vitreous, 0.05 mg, 50 ug into PC right eye, free drug, 2 hours, read-out: Residual vitreous doxorubicin, Mean ± SD) and 6540 ng/mL in series [2] (rabbit, vitreous, 0.05 mg, 50 ug into PC right eye, free drug, 2 hours, read-out: Residual vitreous doxorubicin, single sample). In addition, the concentration at 4 h came to 3850 ± 640 ng/mL in series [2] (rabbit, vitreous, 0.05 mg, 50 ug into PC right eye, free drug, 4 hours, read-out: Residual vitreous doxorubicin, Mean ± SD) and 4300 ng/mL in series [2] (rabbit, vitreous, 0.05 mg, 50 ug into PC right eye, free drug, 4 hours, read-out: Residual vitreous doxorubicin, single sample). Besides, the concentration at 8 h in series [2] (rabbit, vitreous, 0.05 mg, 50 ug into PC right eye, free drug, 8 hours, read-out: Residual vitreous doxorubicin, Mean ± SD) amounted to 860 ± 160 ng/mL; in series [2] (rabbit, vitreous, 0.05 mg, 50 ug into PC right eye, free drug, 8 hours, read-out: Residual vitreous doxorubicin, single sample), 980 ng/mL. Also, the concentration at 16 h in series [2] (rabbit, vitreous, 0.05 mg, 50 ug into PC right eye, free drug, 16 hours, read-out: Residual vitreous doxorubicin, Mean ± SD) is 240 ± 40 ng/mL; in series [2] (rabbit, vitreous, 0.05 mg, 50 ug into PC right eye, free drug, 16 hours, read-out: Residual vitreous doxorubicin, single sample), 260 ng/mL. The “clinical tolerance of PC injection” value in the series with eye [3] is “well tolerated”. Besides, the evidence of toxicity entry in the series on eye [3] is “No evidence of toxicity”.
